Calls of active or inactive are those of the source. The rule behind the calls is not given here.

Tested on in one data set: not listed separately
Description: AUC(0-4h) in cynomolgus monkey at 10 mg/kg. Format: ADME, organism-based, Macaca fascicularis. Details: time < 5 hr, dose 10 mg/kg. To be noted: plasma.
`C[C@H]1OC(=O)[C@@H]2C[C@@H]3CCCC[C@H]3[C@H](/C=C/c3ccc4cc(OCC(=O)O)ccc4n3)[C@H]12` displayed an AUC(0-t) at 5 h of 17 ng·h/mL.

In the case of `C[C@H]1OC(=O)[C@@H]2C[C@@H]3CCCC[C@H]3[C@H](/C=C/c3ccc4cc(O)ccc4n3)[C@H]12`, the AUC(0-t) at 5 h was determined as 826 ng·h/mL.

The next data set has as its system Cynomolgus monkey. Briefly: Inhibition of platelet aggregation in cynomolgus monkey 2 hrs post dose iv. It is filed as functional, organism-based. To be noted: Macaca fascicularis.
Turning to `C[C@H]1OC(=O)[C@@H]2C[C@@H]3CCCC[C@H]3[C@H](/C=C/c3ccc4cc(OCC(=O)O)ccc4n3)[C@H]12`, the inhibition result is “Active”.

A further data set deals with Cynomolgus monkey. Description: Inhibition of platelet aggregation in orally dosed cynomolgus monkey. Format: functional, organism-based. To be noted: Macaca fascicularis.
On to `C[C@H]1OC(=O)[C@@H]2C[C@@H]3CCCC[C@H]3[C@H](/C=C/c3ccc4cc(OCC(=O)O)ccc4n3)[C@H]12`, for which the inhibition result was “inactive”.

The target in another data set is T1, Proteinase-activated receptor 1 (Homo sapiens, UniProt P25116).
T1 sequence (P25116 whole entry): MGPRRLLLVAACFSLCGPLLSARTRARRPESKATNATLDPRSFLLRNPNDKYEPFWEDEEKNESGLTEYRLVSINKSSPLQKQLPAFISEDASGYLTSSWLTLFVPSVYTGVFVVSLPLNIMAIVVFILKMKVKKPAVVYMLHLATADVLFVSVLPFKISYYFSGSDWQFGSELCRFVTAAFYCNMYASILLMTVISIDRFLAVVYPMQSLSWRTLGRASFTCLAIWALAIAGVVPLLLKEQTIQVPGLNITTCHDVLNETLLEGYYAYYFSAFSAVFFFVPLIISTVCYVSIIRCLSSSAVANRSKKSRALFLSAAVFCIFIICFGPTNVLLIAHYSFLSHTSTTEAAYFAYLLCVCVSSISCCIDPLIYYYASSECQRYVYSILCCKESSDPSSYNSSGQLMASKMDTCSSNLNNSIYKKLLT
Description: Displacement of [3H]haTRAP from PAR1 in human platelet membrane at […]. It is filed as cell membranes.
Settings: not given
As to `C[C@H]1OC(=O)[C@@H]2C[C@@H]3CCCC[C@H]3[C@H](/C=C/c3cc(OCc4ccccc4)c4ccccc4n3)[C@H]12` (racemic), the IC50 entry is “Not Active”.

As to `C[C@H]1OC(=O)[C@@H]2C[C@@H]3CCCC[C@H]3[C@H](/C=C/c3ccc4cc(OCCN)ccc4n3)[C@H]12` (racemic), the IC50 entry is “Not Active”.

Consider `C[C@H]1OC(=O)[C@@H]2C[C@@H]3CCCC[C@H]3[C@H](/C=C/c3ccc4cc(OC(F)(F)F)ccc4n3)[C@H]12`, for which the IC50 entry was “Not Active”.

Take `COc1cc(/C=C/[C@H]2[C@@H]3CCCC[C@H]3C[C@H]3C(=O)O[C@H](C)[C@@H]23)nc2ccccc12` (racemic): the IC50 result is “Not Active”.

For the next data set, the target named is T1, Proteinase-activated receptor 1. Briefly: Displacement of [3H]haTRAP from PAR1 in human platelet membrane. Format: cell membranes.
Settings: not given
Take `Cc1ccc2ccc(/C=C/[C@H]3[C@@H]4CCCC[C@H]4C[C@H]4C(=O)O[C@H](C)[C@@H]34)nc2c1` (racemic): the IC50 came out at 150 nM.

Compound `C[C@H]1OC(=O)[C@@H]2C[C@@H]3CCCC[C@H]3[C@H](/C=C/c3ccc4cc(OCC(=O)NC5CC5)ccc4n3)[C@H]12` had a concentration for half-maximal inhibition (IC50) of 290 nM.

Take `C[C@H]1OC(=O)[C@@H]2C[C@@H]3CCCC[C@H]3[C@H](/C=C/c3ccc4cc(OCC(=O)O)ccc4n3)[C@H]12`: the IC50 worked out at 29 nM.

For the compound `COc1ccc2nc(/C=C/[C@H]3[C@@H]4CCCC[C@H]4C[C@H]4C(=O)O[C@H](C)[C@@H]34)ccc2c1Cl` (racemic), the IC50 worked out at 800 nM.

In the case of `CCOc1ccc2nc(/C=C/[C@H]3[C@@H]4CCCC[C@H]4C[C@H]4C(=O)O[C@H](C)[C@@H]34)ccc2c1` (racemic), the IC50 was found to be 125 nM.

Turning to `C[C@H]1OC(=O)[C@@H]2C[C@@H]3CCCC[C@H]3[C@H](/C=C/c3ccc4cc(NC(=O)C(C)(C)C)ccc4n3)[C@H]12`, the IC50 came out at 2150 nM.

Turning to `C[C@H]1OC(=O)[C@@H]2C[C@@H]3CCCC[C@H]3[C@H](/C=C/c3ccc4cc(O)ccc4n3)[C@H]12`, the IC50 was determined as 6.3 nM.

`C[C@H]1OC(=O)[C@@H]2C[C@@H]3CCCC[C@H]3[C@H](/C=C/c3ccc4cc(-c5cccs5)ccc4n3)[C@H]12` displayed an IC50 of 300 nM.

For the compound `Cc1cccc2ccc(/C=C/[C@H]3[C@@H]4CCCC[C@H]4C[C@H]4C(=O)O[C@H](C)[C@@H]34)nc12` (racemic), the IC50 worked out at 390 nM.

`C[C@H]1OC(=O)[C@@H]2C[C@@H]3CCCC[C@H]3[C@H](/C=C/c3ccc4cc(OCC(=O)Nc5ccccc5)ccc4n3)[C@H]12` registered an IC50 of 25 nM.

Regarding `C[C@H]1OC(=O)[C@@H]2C[C@@H]3CCCC[C@H]3[C@H](/C=C/c3ccc4cc(N)ccc4n3)[C@H]12`, the IC50 was determined as 30 nM.

Regarding `C[C@H]1OC(=O)[C@@H]2C[C@@H]3CCCC[C@H]3[C@H](/C=C/c3ccc4cc(OC(C)(C)C(N)=O)ccc4n3)[C@H]12`, the IC50 turned out to be 800 nM.

Take `C[C@H]1OC(=O)[C@@H]2C[C@@H]3CCCC[C@H]3[C@H](/C=C/c3ccc4cc(OC(C)(C)C(=O)Nc5ccccc5)ccc4n3)[C@H]12`: the IC50 came to 500 nM.

Take `C[C@H]1OC(=O)[C@@H]2C[C@@H]3CCCC[C@H]3[C@H](/C=C/c3ccc4cc(-c5cccc(C(F)(F)F)c5)ccc4n3)[C@H]12`: the IC50 stood at 300 nM.

Take `CC(=O)Nc1ccc2nc(/C=C/[C@H]3[C@@H]4CCCC[C@H]4C[C@H]4C(=O)O[C@H](C)[C@@H]34)ccc2c1`: the 50% inhibitory concentration (IC50) stood at 100 nM.

For `C[C@H]1OC(=O)[C@@H]2C[C@@H]3CCCC[C@H]3[C@H](/C=C/c3ccc4cc(NC(=O)c5ccccc5)ccc4n3)[C@H]12`, the IC50 came out at 219 nM.

The compound `C[C@H]1OC(=O)[C@@H]2C[C@@H]3CCCC[C@H]3[C@H](/C=C/c3ccc4cc(OCC(N)=O)ccc4n3)[C@H]12` showed an IC50 of 1000 nM.

The compound `C[C@H]1OC(=O)[C@@H]2C[C@@H]3CCCC[C@H]3[C@H](/C=C/c3ccc4cc(OCC(=O)N5CCOCC5)ccc4n3)[C@H]12` registered an IC50 of 500 nM.

In turn, `C[C@H]1OC(=O)[C@@H]2C[C@@H]3CCCC[C@H]3[C@H](/C=C/c3ccc4cc(F)ccc4n3)[C@H]12` (racemic) had an IC50 of 730 nM.

The compound `C[C@H]1OC(=O)[C@@H]2C[C@@H]3CCCC[C@H]3[C@H](/C=C/c3ccc4cc(Cl)ccc4n3)[C@H]12` (racemic) registered an IC50 of 155 nM.

Compound `C[C@H]1OC(=O)[C@@H]2C[C@@H]3CCCC[C@H]3[C@H](/C=C/c3ccc4cc(OCCNC(=O)OC(C)(C)C)ccc4n3)[C@H]12` (racemic) yielded an IC50 of 275 nM.

Turning to `COc1ccc2nc(/C=C/[C@H]3[C@@H]4CCCC[C@H]4C[C@H]4C(=O)O[C@H](C)[C@@H]34)ccc2c1OC`, the IC50 came to 50 nM.

In turn, `C[C@H]1OC(=O)[C@@H]2C[C@@H]3CCCC[C@H]3[C@H](/C=C/c3ccc4cc(-c5ccsc5)ccc4n3)[C@H]12` gave an IC50 of 50 nM.

`CCCC(=O)Nc1ccc2nc(/C=C/[C@H]3[C@@H]4CCCC[C@H]4C[C@H]4C(=O)O[C@H](C)[C@@H]34)ccc2c1` had a 50% inhibitory concentration (IC50) of 28 nM.

In turn, `COc1cccc2ccc(/C=C/[C@H]3[C@@H]4CCCC[C@H]4C[C@H]4C(=O)O[C@H](C)[C@@H]34)nc12` (racemic) returned an IC50 of 700 nM.

Consider `C[C@H]1OC(=O)[C@@H]2C[C@@H]3CCCC[C@H]3[C@H](/C=C/c3ccc4cc(OCc5ccccc5)ccc4n3)[C@H]12`, for which the IC50 was 1250 nM.

Regarding `CCC(=O)Nc1ccc2nc(/C=C/[C@H]3[C@@H]4CCCC[C@H]4C[C@H]4C(=O)O[C@H](C)[C@@H]34)ccc2c1`, the IC50 is 68 nM.

The values above are taken from ChEMBL document CHEMBL1139666, “Discovery and synthesis of a novel series of quinoline-based thrombin receptor (PAR-1) antagonists” (Bioorg Med Chem Lett, 2006).
